Test results published in patent US20020137929A1, “1 - (3-heterocyclylphenyl) isothiourea, -isourea, -guanidine and -amidine herbicidal agents” (Intellectual Property Department, BASF Aktiengesellschaft, priority 1998, published 2002).

Assays:
ABUTH (Velvetleaf) = assay: Postemergence herbicidal evaluation; format: in vivo, Abutilon theophrasti
Procedure, shortened: (§1)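 Rate range approx. 0.0156–0.500 kg/ha. Foliar application at 40 psi to ~2-week seedlings; surfactant 0.5% TWEEN 20 in 50/50 acetone/water. Evaluation 4–5 wk post-treatment by 0–9 visual injury score, means of replicate tests.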

[1] = tested on: IPOHE (Morningglory, Ivyleaf); assay: Postemergence herbicidal evaluation; format: in vivo, Ipomoea hederacea
Procedure, shortened: as §1

[2] = tested on: TRZAWR (Wheat, Winter, cv Riband); assay: Postemergence herbicidal evaluation; format: in vivo, Triticum aestivum
Procedure, shortened: as §1

[3] = tested on: CHEAL (Lambsquarters, Common); assay: Preemergence herbicidal evaluation; format: in vivo, Chenopodium album; conditions: rated 4-5 weeks after treatment
Procedure, shortened: (§2)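 Each species is sown separately in potting soil over roughly an inch of soil before any emergence. The soil surface then receives an aqueous acetone spray delivering about 0.0156 to 0.500 kg/ha of compound. After four to five weeks, injury is scored from 0 to 9 relative to a control.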

[4] = tested on: IPOHE (Morningglory, Ivyleaf); assay: Preemergence herbicidal evaluation; format: in vivo, Ipomoea hederacea; conditions: rated 4-5 weeks after treatment
Procedure, shortened: as §2

ECHCG (Barnyardgrass) = assay: Preemergence herbicidal evaluation; format: in vivo, Echinochloa crus-galli; conditions: rated 4-5 weeks after treatment
Procedure, shortened: as §2

SETVI (Foxtail, Green) = assay: Preemergence herbicidal evaluation; format: in vivo, Setaria viridis; conditions: rated 4-5 weeks after treatment
Procedure, shortened: as §2

ORYSAT (Rice, Tebonnet) = assay: Preemergence herbicidal evaluation; format: in vivo, Oryza sativa, (L.) Tebonnet; conditions: rated 4-5 weeks after treatment
Procedure, shortened: as §2

[5] = tested on: TRZAWR (Wheat, Winter, cv Riband); assay: Preemergence herbicidal evaluation; format: in vivo, Triticum aestivum; conditions: rated 4-5 weeks after treatment
Procedure, shortened: as §2

[6] = tested on: ECHORC (Watergrass (Calif.)); assay: Preemergence weed control under flooded paddy conditions; format: in vivo, Echinochloa oryzoides; conditions: rated 3-4 weeks after treatment
Procedure, shortened: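 Herbicidal effect is scored visually on a 0-9 scale against an untreated control, three to four weeks after compounds are pipetted into the flood water (1.5 to 3 cm deep) over seeds planted in silt loam at 0.5 cm depth. Rates: about 0.0313 to 0.500 kg/ha.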

MOOVA (Monochoria) = assay: as above; format: in vivo, Monochoria vaginalis; conditions: rated 3-4 weeks after treatment
Procedure, shortened: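 Using flooded silt loam (water 1.5 to 3 cm deep), seeds sown in the top 0.5 cm were exposed preemergence to compound pipetted into the flood at about 0.0313 to 0.500 kg/ha. Effects were scored 0-9 by eye three to four weeks later.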

[7] = tested on: ECHORC (Watergrass (Calif.)); assay: Postemergence weed control under flooded paddy conditions; format: in vivo, Echinochloa oryzoides; conditions: postemergence weeds, 3-4 weeks after treatment
Procedure, shortened: (§3)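 Injury ratings (0–9 scale covering stand, vigor, malformation, size, chlorosis and overall appearance versus control) were made three to four weeks after treatment. Test material, about 0.0313 to 0.500 kg/ha a.i. in 50/50 v/v aqueous/acetone, was added to flood water 1.5 to 3 cm deep over 3 to 5 cm weeds and 1.5 to 2.5 leaf rice.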

CYPIR (Rice Flatsedge) = assay: as above; format: in vivo, Cyperus iria; conditions: postemergence weeds, 3-4 weeks after treatment
Procedure, shortened: as §3

Structure (SMILES): COC(=O)CCCN1C(=O)CSC1=Nc1cc(-n2c(=O)cc(C(F)(F)F)n(C)c2=O)c(F)cc1Cl [Compound 29, Methyl 2-{{2-chloro-5-[3,6-dihydro-3-methyl-2,6-dioxo-4-(trifluoromethyl)-1(2H)-pyrimidinyl]-4-fluorophenyl}imino}-4-oxo-3-thiazolidinebutyrate]
- Postemergence herbicidal rating ABUTH (ABUTH (Velvetleaf); Rate 0.0158 kg/ha): 9.0
- Postemergence herbicidal rating ABUTH (ABUTH (Velvetleaf); Rate 0.0315 kg/ha): 7.0
- Postemergence herbicidal rating ABUTH (ABUTH (Velvetleaf); Rate 0.0630 kg/ha): 9.0
- Postemergence herbicidal rating IPOHE ([1]; Rate 0.0158 kg/ha): 3.0
- Postemergence herbicidal rating IPOHE ([1]; Rate 0.0315 kg/ha): 9.0
- Postemergence herbicidal rating IPOHE ([1]; Rate 0.0630 kg/ha): 9.0
- Postemergence herbicidal rating TRZAWR ([2]; Rate 0.0158 kg/ha): 4.5
- Postemergence herbicidal rating TRZAWR ([2]; Rate 0.0315 kg/ha): 5.0
- Postemergence herbicidal rating TRZAWR ([2]; Rate 0.0630 kg/ha): 5.5
- Preemergence herbicidal rating CHEAL ([3]; rate 0.0625 kg/ha): 0.0
- Preemergence herbicidal rating CHEAL ([3]; rate 0.1250 kg/ha): 0.0
- Preemergence herbicidal rating CHEAL ([3]; rate 0.2500 kg/ha): 0.0
- Preemergence herbicidal rating IPOHE ([4]; rate 0.0625 kg/ha): 0.0
- Preemergence herbicidal rating IPOHE ([4]; rate 0.1250 kg/ha): 0.0
- Preemergence herbicidal rating IPOHE ([4]; rate 0.2500 kg/ha): 4.0
- Preemergence herbicidal rating ECHCG (ECHCG (Barnyardgrass); rate 0.0625 kg/ha): 0.0
- Preemergence herbicidal rating ECHCG (ECHCG (Barnyardgrass); rate 0.1250 kg/ha): 0.0
- Preemergence herbicidal rating ECHCG (ECHCG (Barnyardgrass); rate 0.2500 kg/ha): 0.0
- Preemergence herbicidal rating SETVI (SETVI (Foxtail, Green); rate 0.0625 kg/ha): 0.0
- Preemergence herbicidal rating SETVI (SETVI (Foxtail, Green); rate 0.1250 kg/ha): 0.0
- Preemergence herbicidal rating SETVI (SETVI (Foxtail, Green); rate 0.2500 kg/ha): 9.0
- Preemergence herbicidal rating ORYSAT (ORYSAT (Rice, Tebonnet); rate 0.0625 kg/ha): 0.0
- Preemergence herbicidal rating ORYSAT (ORYSAT (Rice, Tebonnet); rate 0.1250 kg/ha): 0.0
- Preemergence herbicidal rating ORYSAT (ORYSAT (Rice, Tebonnet); rate 0.2500 kg/ha): 3.0
- Preemergence herbicidal rating TRZAWR ([5]; rate 0.0625 kg/ha): 0.0
- Preemergence herbicidal rating TRZAWR ([5]; rate 0.1250 kg/ha): 0.0
- Preemergence herbicidal rating TRZAWR ([5]; rate 0.2500 kg/ha): 4.0
- Herbicidal rating ECHORC ([6]; 0.0313 kg/ha): 4.0
- Herbicidal rating ECHORC ([6]; 0.0625 kg/ha): 7.0
- Herbicidal rating ECHORC ([6]; 0.1250 kg/ha): 7.0
- Herbicidal rating ECHORC ([6]; 0.2500 kg/ha): 7.0
- Herbicidal rating MOOVA (MOOVA (Monochoria); 0.0313 kg/ha): 0.0
- Herbicidal rating MOOVA (MOOVA (Monochoria); 0.0625 kg/ha): 0.0
- Herbicidal rating MOOVA (MOOVA (Monochoria); 0.1250 kg/ha): 0.0
- Herbicidal rating MOOVA (MOOVA (Monochoria); 0.2500 kg/ha): 0.0
- Herbicidal rating ECHORC ([7]; rate 0.0313 kg/ha): 4.0
- Herbicidal rating ECHORC ([7]; rate 0.0625 kg/ha): 7.0
- Herbicidal rating ECHORC ([7]; rate 0.1250 kg/ha): 7.0
- Herbicidal rating ECHORC ([7]; rate 0.2500 kg/ha): 7.0
- Herbicidal rating CYPIR (CYPIR (Rice Flatsedge); rate 0.0313 kg/ha): 0.0
- Herbicidal rating CYPIR (CYPIR (Rice Flatsedge); rate 0.0625 kg/ha): 0.0
- Herbicidal rating CYPIR (CYPIR (Rice Flatsedge); rate 0.1250 kg/ha): 0.0
- Herbicidal rating CYPIR (CYPIR (Rice Flatsedge); rate 0.2500 kg/ha): 0.0
